Test results from PMC3969763 (Molecular biology reports, 2014).

Biological target: T1, β2-chimaerin (Homo sapiens, UniProt P52757)
T1 sequence (P52757 1-468): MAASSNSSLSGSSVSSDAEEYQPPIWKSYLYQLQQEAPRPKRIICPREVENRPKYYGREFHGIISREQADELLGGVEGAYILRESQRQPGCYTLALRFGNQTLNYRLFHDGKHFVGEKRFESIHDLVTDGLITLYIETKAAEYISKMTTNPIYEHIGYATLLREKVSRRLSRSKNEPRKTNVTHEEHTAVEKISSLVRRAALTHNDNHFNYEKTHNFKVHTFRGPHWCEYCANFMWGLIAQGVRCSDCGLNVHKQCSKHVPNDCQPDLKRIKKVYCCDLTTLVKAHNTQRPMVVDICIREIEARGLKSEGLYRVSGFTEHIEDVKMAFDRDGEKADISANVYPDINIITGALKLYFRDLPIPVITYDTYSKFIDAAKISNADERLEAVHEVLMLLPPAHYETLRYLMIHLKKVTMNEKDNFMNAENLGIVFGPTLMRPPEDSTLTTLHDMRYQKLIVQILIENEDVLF
Assay type: cell-based

CCCCCCCCCCCCCC(=O)O[C@@H]1[C@@H](C)[C@@]2(O)[C@@H](C=C(CO)C[C@]3(O)C(=O)C(C)=C[C@@H]23)[C@@H]2C(C)(C)[C@]12OC(C)=O [Phorbol 12-myristate 13-acetate]
EC50: 1.202 ± 0.001 µM
